Test: Preclinical PK, cynomolgus monkeys
Format: in vivo

NS(=O)(=O)NCCNc1nonc1C(=NO)Nc1ccc(F)c(Br)c1 [Compound 1, 4-({2-[(aminosulfonyl)amino]ethyl}amino)-N-(3-bromo-4-fluorophenyl)-N′-hydroxy-1,2,5-oxadiazole-3-carboximidamide]
systemic clearance in percent hepatic blood flow (cynomolgus monkey): 31%
fraction of oral dose absorbed (Fa) (cynomolgus monkeys, estimated from preclinical PK studies (not shown)): 48%
renal excretion of unchanged compound (monkeys): less than 3 % of IV dose

From patent US20180353483A1, “PHARMACEUTICAL COMPOSITIONS AND METHODS FOR INDOLEAMINE, 2, 3-DIOXYGENASE INHIBITION AND INDICATIONS THEREFOR” (Incyte Corporation, priority 2015, published 2018)
